From ChEMBL document CHEMBL5291721, “A preclinical secondary pharmacology resource illuminates target-adverse drug reaction associations of marketed drugs” (Nat Commun, 2023)

How the values were obtained:
[1] = target: Voltage-dependent L-type calcium channel subunit alpha-1C (Rattus norvegicus, UniProt P22002); type: functional
[2] = target: Kappa-type opioid receptor (Homo sapiens, UniProt P41145)
[3] = target: T1, Progesterone receptor (Homo sapiens, UniProt P06401); type: functional
T1 sequence (P06401 whole entry): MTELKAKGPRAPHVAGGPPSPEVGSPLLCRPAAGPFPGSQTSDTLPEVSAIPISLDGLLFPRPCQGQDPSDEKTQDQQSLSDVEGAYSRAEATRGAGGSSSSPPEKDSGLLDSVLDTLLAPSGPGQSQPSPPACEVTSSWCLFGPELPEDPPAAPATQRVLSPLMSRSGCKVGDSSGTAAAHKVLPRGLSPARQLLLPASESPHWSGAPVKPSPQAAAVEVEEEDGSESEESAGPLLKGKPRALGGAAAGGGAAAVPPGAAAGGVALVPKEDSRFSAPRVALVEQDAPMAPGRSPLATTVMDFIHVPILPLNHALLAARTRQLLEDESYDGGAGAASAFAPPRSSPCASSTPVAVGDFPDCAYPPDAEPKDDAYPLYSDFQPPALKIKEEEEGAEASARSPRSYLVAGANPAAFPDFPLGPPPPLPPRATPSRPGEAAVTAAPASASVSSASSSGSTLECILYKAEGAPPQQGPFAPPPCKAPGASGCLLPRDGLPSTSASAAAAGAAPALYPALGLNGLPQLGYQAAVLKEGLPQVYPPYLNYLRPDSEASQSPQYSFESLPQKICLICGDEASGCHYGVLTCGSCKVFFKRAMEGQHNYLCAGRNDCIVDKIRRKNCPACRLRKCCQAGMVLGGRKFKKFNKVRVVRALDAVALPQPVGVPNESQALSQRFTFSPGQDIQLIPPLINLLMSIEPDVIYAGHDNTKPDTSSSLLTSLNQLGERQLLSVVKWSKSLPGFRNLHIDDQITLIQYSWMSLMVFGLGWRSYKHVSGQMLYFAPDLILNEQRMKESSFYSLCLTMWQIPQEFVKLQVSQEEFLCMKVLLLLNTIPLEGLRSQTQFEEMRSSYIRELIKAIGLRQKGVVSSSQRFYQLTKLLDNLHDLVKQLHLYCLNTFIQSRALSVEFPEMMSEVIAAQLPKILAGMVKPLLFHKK

[4] = target: Adenosine receptor A2a (Homo sapiens, UniProt P29274)
[5] = target: 5-hydroxytryptamine receptor 2B (Homo sapiens, UniProt P41595); type: functional, cell-based
[6] = target: T2, Alpha-1A adrenergic receptor (Homo sapiens, UniProt P35348); type: functional, cell-based
T2 sequence (P35348 whole entry): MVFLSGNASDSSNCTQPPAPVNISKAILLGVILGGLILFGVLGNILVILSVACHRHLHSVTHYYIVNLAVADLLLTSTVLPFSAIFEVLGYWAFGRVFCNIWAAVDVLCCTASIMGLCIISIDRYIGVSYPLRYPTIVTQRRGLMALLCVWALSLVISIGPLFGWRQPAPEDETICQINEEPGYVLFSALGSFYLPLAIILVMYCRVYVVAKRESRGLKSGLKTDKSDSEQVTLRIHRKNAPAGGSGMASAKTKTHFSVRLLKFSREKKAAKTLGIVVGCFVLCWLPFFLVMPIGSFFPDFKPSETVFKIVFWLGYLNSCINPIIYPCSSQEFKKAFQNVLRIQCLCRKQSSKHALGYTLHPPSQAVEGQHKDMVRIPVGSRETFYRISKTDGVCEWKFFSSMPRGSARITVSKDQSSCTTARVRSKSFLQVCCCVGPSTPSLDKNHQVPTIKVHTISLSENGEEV
Note: assay procedure not described here.

Chain of Voltage-dependent L-type calcium channel subunit alpha-1C (P22002 whole entry): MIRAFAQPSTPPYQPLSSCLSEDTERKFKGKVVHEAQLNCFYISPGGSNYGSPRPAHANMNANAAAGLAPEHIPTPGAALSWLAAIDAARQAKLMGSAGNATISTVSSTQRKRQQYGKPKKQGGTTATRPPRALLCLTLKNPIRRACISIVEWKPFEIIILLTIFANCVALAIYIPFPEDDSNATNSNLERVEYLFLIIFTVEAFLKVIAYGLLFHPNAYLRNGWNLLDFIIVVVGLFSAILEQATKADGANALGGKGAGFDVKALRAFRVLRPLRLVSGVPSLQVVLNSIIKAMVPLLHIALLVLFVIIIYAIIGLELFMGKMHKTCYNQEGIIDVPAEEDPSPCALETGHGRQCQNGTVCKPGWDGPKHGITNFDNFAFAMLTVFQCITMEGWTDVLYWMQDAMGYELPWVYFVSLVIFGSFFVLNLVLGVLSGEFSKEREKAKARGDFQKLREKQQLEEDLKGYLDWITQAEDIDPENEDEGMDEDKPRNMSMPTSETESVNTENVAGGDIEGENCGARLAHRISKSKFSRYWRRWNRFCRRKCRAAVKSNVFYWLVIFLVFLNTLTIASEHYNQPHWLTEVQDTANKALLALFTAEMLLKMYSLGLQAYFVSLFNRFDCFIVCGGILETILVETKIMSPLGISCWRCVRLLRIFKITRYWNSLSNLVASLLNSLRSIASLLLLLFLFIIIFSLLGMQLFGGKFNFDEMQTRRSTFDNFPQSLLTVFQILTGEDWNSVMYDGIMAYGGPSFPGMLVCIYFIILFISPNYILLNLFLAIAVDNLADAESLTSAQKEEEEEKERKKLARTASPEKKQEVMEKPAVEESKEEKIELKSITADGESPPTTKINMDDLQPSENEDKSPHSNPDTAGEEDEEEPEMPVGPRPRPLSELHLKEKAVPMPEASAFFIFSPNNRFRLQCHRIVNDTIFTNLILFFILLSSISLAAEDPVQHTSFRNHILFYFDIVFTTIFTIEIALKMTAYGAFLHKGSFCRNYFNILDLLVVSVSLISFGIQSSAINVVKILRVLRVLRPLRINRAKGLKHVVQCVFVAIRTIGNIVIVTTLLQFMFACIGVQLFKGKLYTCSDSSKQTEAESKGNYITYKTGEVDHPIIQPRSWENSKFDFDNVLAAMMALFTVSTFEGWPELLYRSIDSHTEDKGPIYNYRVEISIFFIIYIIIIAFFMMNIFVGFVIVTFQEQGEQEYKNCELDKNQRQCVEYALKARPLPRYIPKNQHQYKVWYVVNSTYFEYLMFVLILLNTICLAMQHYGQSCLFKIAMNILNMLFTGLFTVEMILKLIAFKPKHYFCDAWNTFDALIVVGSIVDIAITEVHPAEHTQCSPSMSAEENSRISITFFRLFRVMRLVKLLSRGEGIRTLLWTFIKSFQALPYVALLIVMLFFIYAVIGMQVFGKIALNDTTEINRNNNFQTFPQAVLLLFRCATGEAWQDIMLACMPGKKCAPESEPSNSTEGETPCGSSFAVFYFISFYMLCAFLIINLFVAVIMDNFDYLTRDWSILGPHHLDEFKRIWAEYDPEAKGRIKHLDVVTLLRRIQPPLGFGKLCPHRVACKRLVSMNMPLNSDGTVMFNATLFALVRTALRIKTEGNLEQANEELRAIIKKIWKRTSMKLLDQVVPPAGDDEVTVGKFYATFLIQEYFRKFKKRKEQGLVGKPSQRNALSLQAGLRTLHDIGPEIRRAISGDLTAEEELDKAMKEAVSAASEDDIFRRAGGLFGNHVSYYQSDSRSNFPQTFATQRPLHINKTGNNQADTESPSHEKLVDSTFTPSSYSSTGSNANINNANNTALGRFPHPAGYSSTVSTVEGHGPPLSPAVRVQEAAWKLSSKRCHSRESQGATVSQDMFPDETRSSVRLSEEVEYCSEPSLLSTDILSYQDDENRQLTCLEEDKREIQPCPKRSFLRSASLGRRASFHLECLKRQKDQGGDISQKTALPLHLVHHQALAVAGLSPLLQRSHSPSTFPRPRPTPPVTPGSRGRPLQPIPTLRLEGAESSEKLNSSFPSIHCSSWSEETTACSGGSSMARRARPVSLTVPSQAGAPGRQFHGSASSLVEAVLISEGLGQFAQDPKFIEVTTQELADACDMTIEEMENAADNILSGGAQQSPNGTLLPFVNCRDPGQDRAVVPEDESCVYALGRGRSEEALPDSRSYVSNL
Chain of Kappa-type opioid receptor (P41145 whole entry): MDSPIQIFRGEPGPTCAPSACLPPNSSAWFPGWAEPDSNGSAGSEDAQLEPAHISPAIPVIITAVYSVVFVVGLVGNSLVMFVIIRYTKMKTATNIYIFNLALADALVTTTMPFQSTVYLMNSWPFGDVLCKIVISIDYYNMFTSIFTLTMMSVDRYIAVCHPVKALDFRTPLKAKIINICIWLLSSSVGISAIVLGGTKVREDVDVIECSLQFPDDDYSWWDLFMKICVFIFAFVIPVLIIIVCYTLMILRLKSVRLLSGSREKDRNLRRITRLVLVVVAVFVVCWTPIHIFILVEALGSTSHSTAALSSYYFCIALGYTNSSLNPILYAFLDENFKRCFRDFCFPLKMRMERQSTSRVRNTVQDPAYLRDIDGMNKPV
Chain of 5-hydroxytryptamine receptor 2B (P41595 whole entry): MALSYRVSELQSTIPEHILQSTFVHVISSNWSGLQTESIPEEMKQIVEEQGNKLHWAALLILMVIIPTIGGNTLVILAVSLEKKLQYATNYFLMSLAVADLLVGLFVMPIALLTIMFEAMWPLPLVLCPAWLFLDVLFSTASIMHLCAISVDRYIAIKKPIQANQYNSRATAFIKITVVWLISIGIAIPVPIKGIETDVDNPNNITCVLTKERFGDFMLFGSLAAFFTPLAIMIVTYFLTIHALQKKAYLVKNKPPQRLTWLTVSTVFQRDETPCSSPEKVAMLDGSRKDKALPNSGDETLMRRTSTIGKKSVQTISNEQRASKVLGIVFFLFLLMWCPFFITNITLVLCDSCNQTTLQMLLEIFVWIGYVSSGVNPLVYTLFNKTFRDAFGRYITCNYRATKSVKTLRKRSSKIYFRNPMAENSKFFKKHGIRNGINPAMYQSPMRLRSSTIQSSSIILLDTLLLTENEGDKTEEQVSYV
Chain of Adenosine receptor A2a (P29274 whole entry): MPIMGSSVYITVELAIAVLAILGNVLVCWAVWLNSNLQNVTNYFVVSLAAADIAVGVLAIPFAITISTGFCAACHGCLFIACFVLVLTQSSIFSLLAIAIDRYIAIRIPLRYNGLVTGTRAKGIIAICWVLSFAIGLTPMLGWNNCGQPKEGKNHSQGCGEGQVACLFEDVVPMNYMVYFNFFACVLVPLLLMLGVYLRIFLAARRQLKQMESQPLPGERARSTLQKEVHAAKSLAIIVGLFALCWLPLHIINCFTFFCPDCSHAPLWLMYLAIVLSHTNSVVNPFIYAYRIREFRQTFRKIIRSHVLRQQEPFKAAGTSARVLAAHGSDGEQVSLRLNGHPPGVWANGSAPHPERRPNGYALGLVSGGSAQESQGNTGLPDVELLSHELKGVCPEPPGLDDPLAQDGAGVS

Compound | AC50 [1] [µM] | AC50 [2] [µM] | AC50 [3] [µM] | AC50 [4] [µM] | AC50 [5] [µM] | AC50 [6] [µM]
C[N+]1(C)CCC(=C(c2ccccc2)c2ccccc2)CC1 | > 10 | > 10 | > 10 | > 30 | > 10 | 
C[N+](C)(C)CCOP(=O)([O-])OC[C@H](O)CO | > 30 | > 30 | > 30 | > 30 | > 30 | > 30
CN(C)Cc1nnc2n1-c1ccc(Cl)cc1C(c1ccccc1)=NC2 [ADINAZOLAM] | > 10 | 3.29 | > 10 | > 10 | > 10 | 
CN(C)C/C=C/C(=O)Nc1cc2c(Nc3ccc(F)c(Cl)c3)ncnc2cc1O[C@H]1CCOC1 [AFATINIB] |  | > 30 | > 30 | > 30 | > 30 | > 30
Cc1ccccc1-n1c(CF)nc2ccc(N)cc2c1=O [AFLOQUALONE] | > 10 | > 10 | > 30 | > 30 | > 10 | 
CCC1(c2ccc(N)cc2)CCC(=O)NC1=O (stereo unspecified) [AMINOGLUTETHIMIDE] |  | > 30 | > 30 | > 30 | > 30 | > 30
CC1=C(C(=O)OC(C)C)C(c2cccc([N+](=O)[O-])c2)C(C(=O)OC2CN(C(c3ccccc3)c3ccccc3)C2)=C(N)N1 (stereo unspecified) [AZELNIDIPINE] | 0.092 | > 30 | > 3 | > 30 | > 30 | > 30
CC(Cc1cccc(C(F)(F)F)c1)NCCOC(=O)c1ccccc1 (stereo unspecified) [BENFLUOREX] |  | > 30 | > 30 | > 30 | > 30 | > 30
CCOC(=O)c1ccc(N)cc1 [BENZOCAINE] | > 10 | > 10 | > 10 | > 10 | > 10 | 
CC(C)(Oc1ccc(CCNC(=O)c2ccc(Cl)cc2)cc1)C(=O)O [BEZAFIBRATE] | > 10 | > 10 | > 10 | > 10 | > 10 | > 30
O=C(O)COCCN1CCN(C(c2ccccc2)c2ccc(Cl)cc2)CC1 (stereo unspecified) [CETIRIZINE] |  | > 10 |  | > 30 |  | > 30
C/C=C(/C(=C/C)c1ccc(O)cc1)c1ccc(O)cc1 [DIENESTROL] | > 10 | > 10 | > 30 | > 30 | > 10 | 
CN[C@]1(c2ccccc2Cl)CCCCC1=O [ESKETAMINE] | > 30 | 13 | > 30 | > 30 | > 30 | > 30
COc1ccc([C@@H]2CC(=O)c3c(O)cc(O)cc3O2)cc1O [HESPERETIN] | > 10 | > 10 | > 10 | > 10 | > 10 | 
CNCCc1ccc(OC(=O)C(C)C)c(OC(=O)C(C)C)c1 [IBOPAMINE] | 18 | > 30 | > 30 | > 30 | > 30 | 0.131
CN(C)CCCN1c2ccccc2CCc2ccccc21 [IMIPRAMINE] |  |  |  | > 30 | > 10 | > 30
CCOC(=O)C1=C(C)NC(C)=C(C(=O)OCC)C1c1ccccc1/C=C/C(=O)OC(C)(C)C [LACIDIPINE] | 0.32 | 8.6 | 29 | > 30 | > 30 | > 30

Compound | AC50 [1] [µM] | AC50 [2] [µM] | AC50 [3] [µM] | AC50 [4] [µM] | AC50 [5] [µM] | AC50 [6] [µM]
CCC[C@@H]1C[C@@H](C(=O)N[C@@H]([C@H]2O[C@H](SC)[C@H](O)[C@@H](O)[C@H]2O)[C@@H](C)O)N(C)C1 [LINCOMYCIN] | > 10 | > 10 |  | > 10 | > 30 | > 30
COC(=O)C1=C(C)NC(C)=C(C(=O)OCCN2CCN(C(c3ccccc3)c3ccccc3)CC2)C1c1cccc([N+](=O)[O-])c1 (stereo unspecified) [MANIDIPINE 6300] | 0.3 | 7.9 |  | > 30 | > 30 | > 30
C=C1c2cccc(O)c2C(=O)C2=C(O)[C@]3(O)C(=O)C(C(N)=O)=C(O)[C@@H](N(C)C)[C@@H]3[C@@H](O)[C@H]12 [METHACYCLINE] | > 10 | > 10 | > 30 | > 30 | > 10 | 
CN(Cc1cnc2nc(N)nc(N)c2n1)c1ccc(C(=O)N[C@@H](CCC(=O)O)C(=O)O)cc1 [METHOTREXATE] | > 10 | > 10 |  | > 30 | > 10 | > 30
Cc1ccccc1N1C(=O)c2cc(S(N)(=O)=O)c(Cl)cc2NC1C (stereo unspecified) [METOLAZONE] | > 10 | > 10 | > 10 | > 10 | > 10 | 
O=C(O)c1cccnc1Nc1cccc(C(F)(F)F)c1 [NIFLUMIC ACID] | > 10 | > 10 | > 10 | > 10 | > 10 | 
O=C1c2cccc3c2[C@H](CCC3)CN1[C@@H]1CN2CCC1CC2 [PALONOSETRON] | > 30 | > 30 | > 30 | > 30 | > 30 | > 30
OC[C@H]1O[C@@H](n2cnc3c2NC=NC[C@H]3O)C[C@@H]1O [PENTOSTATIN] |  | > 30 | > 30 | 3.4 | > 30 | > 30
O=C1c2ccccc2C(=O)C1c1ccccc1 [PHENINDIONE] | > 10 | > 10 | > 10 | > 10 | > 10 | > 30
Cc1cccc(C)c1NC(=O)CC12CCCN1CCC2 [PILSICAINIDE] | > 30 | > 30 | > 30 | > 30 | > 30 | > 30
CC(C)c1cccc(C(C)C)c1O [PROPOFOL] |  |  | > 30 | > 30 | > 30 | > 30
CN[C@@H](C)[C@@H](O)c1ccccc1 [PSEUDOEPHEDRINE] | > 10 | > 10 |  | > 30 | > 10 | 
CCCN1CC(NS(=O)(=O)N(CC)CC)CC2Cc3c(O)cccc3CC21 (stereo unspecified) [QUINAGOLIDE] | > 30 | 1.7 | > 30 | > 30 | 3.67 | 0.45
C[C@]12CCC(=O)C[C@@H]1CC[C@@H]1[C@@H]2CC[C@]2(C)[C@@H](O)CC[C@@H]12 [STANOLONE] | > 30 | > 30 |  | > 30 | > 30 | > 30
O=C1OC(OC(=O)c2cccnc2Nc2cccc(C(F)(F)F)c2)c2ccccc21 (stereo unspecified) [TALNIFLUMATE] |  | > 30 | > 30 | > 30 | > 30 | > 30
C[C@]12C=CC(=O)C=C1CC[C@@H]1[C@@H]2CC[C@]2(C)OC(=O)CC[C@@H]12 [TESTOLACTONE] | > 10 | > 10 | > 10 | > 10 | > 30 | > 30
CCOC(=O)c1c(CSc2ccccc2)n(C)c2cc(Br)c(O)c(CN(C)C)c12 [UMIFENOVIR] | > 30 | > 30 | > 30 | 23 | > 30 | > 30
